For three compounds, CMC and γcmc results are on record in patent publication US20070243321A1, “Aqueous Bitumen Emulsion” (Eiffage Travaux Publics, priority 2004, published 2007).

A short description of the data set: Measurement of surface tension and critical micellar concentrations (rising drop tensiometer). Type of data set: physicochemical. The conditions noted are these: for CMC: critical micellar concentration; for γcmc: surface tension at the CMC, rising drop. As for the experimental part: Measurement of Surface Tension and Critical Micellar Concentrations The tensiometric measurements were carried out with a drop tensiometer operating by the method of the rising drop ([…] tensiometer, I.T. CONCEPT).

The compound `CCCCCCCCCCCCOS(=O)(=O)[O-].[Na+]` [SDS (C12), reference compound] came in with a CMC of 8000 µM and a γcmc of 30.0 mN/m.

“octadecyl betaine mesylate [Esters C18:0]” showed a CMC of 800 µM and a γcmc of 37.2 mN/m.

“betainylaminooctadecane mesylate [Amides C18:0]” had a CMC of 140 µM and a γcmc of 36.0 mN/m.
